Test results: patent publication US8921546B2, “Imidazolothiazole compounds for the treatment of disease” (Ambit Biosciences Corporation, priority 2006, dated 2014)
Where a name gives a salt, the structure may show the parent alone. Read-outs that look alike come from different tables or passages of the source.

How the values were obtained:
FLT3 = biological target: T1, FLT3 (Homo sapiens, UniProt P36888); assay: Binding constant (Kd) measurement, phage-displayed kinase competition binding assay, FLT3
T1 construct: made in house
T1 sequence (P36888 27-993): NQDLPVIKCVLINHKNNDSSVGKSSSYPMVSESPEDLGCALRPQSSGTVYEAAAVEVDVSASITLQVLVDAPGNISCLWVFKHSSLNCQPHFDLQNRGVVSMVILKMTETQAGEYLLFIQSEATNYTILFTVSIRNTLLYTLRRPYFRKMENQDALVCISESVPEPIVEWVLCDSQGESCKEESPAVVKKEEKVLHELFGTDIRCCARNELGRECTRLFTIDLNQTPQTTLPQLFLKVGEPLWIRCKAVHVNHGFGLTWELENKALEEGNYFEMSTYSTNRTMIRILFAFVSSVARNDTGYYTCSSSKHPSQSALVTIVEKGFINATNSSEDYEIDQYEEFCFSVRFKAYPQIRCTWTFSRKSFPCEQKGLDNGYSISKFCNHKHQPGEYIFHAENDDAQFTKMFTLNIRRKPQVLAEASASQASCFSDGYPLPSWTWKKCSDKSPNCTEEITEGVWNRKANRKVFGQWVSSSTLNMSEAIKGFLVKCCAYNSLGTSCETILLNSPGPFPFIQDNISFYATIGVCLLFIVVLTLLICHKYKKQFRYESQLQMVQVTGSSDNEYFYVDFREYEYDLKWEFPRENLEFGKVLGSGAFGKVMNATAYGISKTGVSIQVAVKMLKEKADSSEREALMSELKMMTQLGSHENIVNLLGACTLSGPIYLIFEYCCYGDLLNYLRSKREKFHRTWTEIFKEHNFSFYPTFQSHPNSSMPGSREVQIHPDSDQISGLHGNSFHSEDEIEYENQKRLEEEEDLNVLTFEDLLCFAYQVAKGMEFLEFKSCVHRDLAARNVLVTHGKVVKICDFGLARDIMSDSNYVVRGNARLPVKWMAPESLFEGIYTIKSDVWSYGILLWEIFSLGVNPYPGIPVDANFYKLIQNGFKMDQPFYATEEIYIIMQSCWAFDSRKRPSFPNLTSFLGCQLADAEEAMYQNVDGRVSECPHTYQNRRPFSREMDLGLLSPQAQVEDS
Description: (§1) Binding Constant (Kd) Measurements for Small-Molecule-Kinase Interactions
(§2) By testing across a large class of protein kinases, specificity of the kinase inhibitors provided herein is also determined. The components of the assays include various human kinases expressed as fusions to T7 bacteriophage particles and immobilized ligands that bind to the ATP site of the kinases. […] If the test compound binds the kinase, it competes with the immobilized ligand and prevents binding to the solid support. […] The results are read out by quantitating the amount of fusion protein bound to the solid support, which is accomplished by either traditional phage plaque assays or by quantitative PCR (qPCR) using the phage genome as a template.

KIT = biological target: T2, KIT (Homo sapiens, UniProt P10721); assay: Binding constant (Kd) measurement, phage-displayed kinase competition binding assay, KIT
T2 construct: made in house
Description: as §1, §2

CSF1R = biological target: T3, CSF1R (Homo sapiens, UniProt P07333); assay: Binding constant (Kd) measurement, phage-displayed kinase competition binding assay, CSF1R
T3 construct: made in house
Description: as §1, §2

MV4-11 cells = assay: Cellular proliferation assay (MTS), MV4-11; assay type: cell-based; conditions: Homo sapiens
Source text: Cellular Proliferation Assay
Cancer cell viability and proliferation can be evaluated using a tetrazolium salt reduction cell-based assay. In viable cells, this colorimetric assay can measure mitochondrial reduction of a tetrazolium component (MTS) into an […] formazan product.
This cell line was used to determine the ability of the compounds provided herein to inhibit Flt3 in intact cells. The RS4-11 cell line, which expresses the wild-type (WT) receptor, is also used as a control to verify the test compound's ability to inhibit the FLT3 receptor containing the ITD mutation.
MV4-11 cells were plated at 10,000 cells per well in DMEM medium with 0.5% serum. RS4-11 cells were plated at 20,000 cells per well in RPMI with 0.5% serum. […] An aliquot from each well of the compound plate was transferred to the plated cells and then incubated @ 37° C. in 5% CO2 (for 3 days for the MV4-11 cells, 2 days for the RS4-11 cells).
MTS tetrazolium compound (Owen's reagent) was thawed in a H2O bath. 20 μl of MTS tetrazolium was added to each well of optical plate and the cells were incubated @ 37° C. in 5% CO2 for 2 hours.

[1] = read-out: Binding Assay FLT3 Kd
[2] = MV4-11 cells, 72 hour incubation, MTS, read-out: Cellular Assay MV-proliferation IC50

T3 sequence (P07333 20-972): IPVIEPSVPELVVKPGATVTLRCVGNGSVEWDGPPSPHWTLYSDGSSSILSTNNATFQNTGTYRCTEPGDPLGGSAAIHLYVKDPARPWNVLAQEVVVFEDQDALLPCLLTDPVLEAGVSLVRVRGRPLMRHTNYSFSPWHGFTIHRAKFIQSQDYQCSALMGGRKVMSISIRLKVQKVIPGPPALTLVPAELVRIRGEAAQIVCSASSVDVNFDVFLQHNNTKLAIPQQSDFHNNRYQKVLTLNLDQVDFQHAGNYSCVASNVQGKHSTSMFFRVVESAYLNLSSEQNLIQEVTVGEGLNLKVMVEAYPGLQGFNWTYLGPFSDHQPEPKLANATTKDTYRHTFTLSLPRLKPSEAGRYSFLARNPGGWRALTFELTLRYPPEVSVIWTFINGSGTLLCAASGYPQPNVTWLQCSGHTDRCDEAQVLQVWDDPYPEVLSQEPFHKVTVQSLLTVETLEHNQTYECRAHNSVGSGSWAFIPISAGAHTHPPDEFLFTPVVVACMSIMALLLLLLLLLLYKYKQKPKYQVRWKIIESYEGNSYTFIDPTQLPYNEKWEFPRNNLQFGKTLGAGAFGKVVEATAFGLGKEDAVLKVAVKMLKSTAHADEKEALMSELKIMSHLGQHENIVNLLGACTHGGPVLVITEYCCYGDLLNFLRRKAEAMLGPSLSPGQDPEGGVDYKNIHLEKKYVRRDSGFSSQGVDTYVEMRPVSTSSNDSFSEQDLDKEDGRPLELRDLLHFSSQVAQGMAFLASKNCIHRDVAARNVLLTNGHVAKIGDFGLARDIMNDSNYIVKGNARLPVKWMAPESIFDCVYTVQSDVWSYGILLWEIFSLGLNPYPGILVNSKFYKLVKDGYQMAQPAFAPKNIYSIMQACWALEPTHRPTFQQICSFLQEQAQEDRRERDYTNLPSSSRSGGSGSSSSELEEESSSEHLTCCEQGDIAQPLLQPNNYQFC
T2 sequence (P10721 26-976): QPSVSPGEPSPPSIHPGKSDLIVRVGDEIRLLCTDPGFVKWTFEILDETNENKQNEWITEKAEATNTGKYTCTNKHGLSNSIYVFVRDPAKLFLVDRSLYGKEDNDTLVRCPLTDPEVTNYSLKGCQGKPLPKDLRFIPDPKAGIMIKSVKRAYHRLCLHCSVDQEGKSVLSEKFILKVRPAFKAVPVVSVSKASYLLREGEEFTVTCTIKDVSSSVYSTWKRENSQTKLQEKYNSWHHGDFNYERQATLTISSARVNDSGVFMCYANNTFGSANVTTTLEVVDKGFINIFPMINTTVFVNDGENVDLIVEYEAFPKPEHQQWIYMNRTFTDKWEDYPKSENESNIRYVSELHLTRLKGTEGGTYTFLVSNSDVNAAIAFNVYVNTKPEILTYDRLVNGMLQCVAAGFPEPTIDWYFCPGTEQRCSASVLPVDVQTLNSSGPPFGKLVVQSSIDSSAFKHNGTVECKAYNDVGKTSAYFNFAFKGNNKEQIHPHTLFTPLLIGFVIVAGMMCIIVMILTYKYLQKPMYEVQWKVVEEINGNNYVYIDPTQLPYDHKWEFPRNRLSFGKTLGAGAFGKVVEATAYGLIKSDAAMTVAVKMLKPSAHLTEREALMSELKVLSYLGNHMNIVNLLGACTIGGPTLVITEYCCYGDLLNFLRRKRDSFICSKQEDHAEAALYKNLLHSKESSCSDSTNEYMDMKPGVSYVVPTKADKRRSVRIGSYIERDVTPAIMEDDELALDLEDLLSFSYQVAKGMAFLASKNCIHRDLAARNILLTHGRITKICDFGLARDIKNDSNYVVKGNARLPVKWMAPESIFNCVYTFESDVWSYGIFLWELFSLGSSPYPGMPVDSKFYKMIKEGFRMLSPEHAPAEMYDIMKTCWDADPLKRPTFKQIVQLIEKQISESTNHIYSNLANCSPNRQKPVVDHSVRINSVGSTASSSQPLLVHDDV

| SMILES | Kd (FLT3; [1]) | Kd (KIT) | Kd (CSF1R) | IC50 (MV4-11 cells; [2]) | Kd (FLT3) | IC50 (MV4-11 cells; MV4-11, 72 h, read-out: Cellular Assay MV-proliferation IC50 (nM)) |
| --- | --- | --- | --- | --- | --- | --- |
| CC(C)(C)c1cc(NC(=O)Nc2cccc(-c3cn4c(n3)sc3cc(OCCN5CCOCC5)ccc34)c2)no1 [Compound B13, N-(5-tert-butyl-isoxazol-3-yl)-N′-{3-[7-(2-morpholin-4-yl-ethoxy)imidazo[2,1-b][1,3]benzothiazol-2-yl]phenyl}urea] | 100 to 1000 nM | > 1000 nM | > 1000 nM | > 100 nM | – | – |
| CC(C)(C)c1cc(NC(=O)Nc2ccc(-c3cn4c(n3)sc3cc(OCCCN5CCN(S(C)(=O)=O)CC5)ccc34)cc2)no1 [Compound B10, 1-(5-tert-butyl-isoxazol-3-yl)-3-(4-{7-[3-(4-methanesulfonyl-piperazin-1-yl)-propoxy]-benzo[d]imidazo[2,1-b]thiazol-2-yl}-phenyl)-urea] | < 10 nM | 10 to 100 nM | 10 to 100 nM | < 10 nM | – | – |
| CC(C)(C)c1cc(NC(=O)Nc2ccc(-c3cn4c(n3)sc3cc(CCN5CCOCC5)ccc34)cc2)no1 [Compound D5, 1-(5-tert-Butyl-isoxazol-3-yl)-3-{4-[7-(2-morpholin-4-yl-ethyl)-imidazo[2,1-b][1,3]benzothiazol-2-yl]-phenyl}-urea hydrochloride] | – | < 10 nM | < 10 nM | < 10 nM | < 10 nM | – |
| CC(C)(C)c1cc(NC(=O)Nc2ccc(-c3cn4c(n3)sc3cc(CN5CCOCC5)ccc34)cc2)no1 [Compound D8, 1-(5-tert-Butyl-isoxazol-3-yl)-3-[4-(7-morpholin-4-ylmethyl-imidazo[2,1-b][1,3]benzothiazol-2-yl)-phenyl]-urea hydrochloride] | – | < 10 nM | 10 to 100 nM | < 10 nM | < 10 nM | – |
| CC(C)(C)c1cc(NC(=O)Nc2ccc(-c3cn4c(n3)sc3cccc(OCCN5CCOCC5)c34)cc2)no1 [Compound B11, N-(5-tert-butyl-isoxazol-3-yl)-N′-{4-[5-(2-morpholin-4-yl-ethoxy)imidazo[2,1-b][1,3]benzothiazol-2-yl]phenyl}urea hydrochloride] | < 10 nM | 10 to 100 nM | 100 to 1000 nM | < 10 nM | – | – |
| CC(C)(C)c1cc(NC(=O)Nc2ccc(-c3cn4c(n3)sc3cc(CCC(=O)O)ccc34)cc2)no1 [Compound C4, 3-{2-[4-({[(5-tert-butylisoxazol-3-yl)amino]carbonyl}amino)phenyl]imidazo[2,1-b][1,3]benzothiazol-7-yl}propanoic acid] | < 10 nM | < 10 nM | 10 to 100 nM | < 10 nM | – | – |
| CN1CCN(C(=O)c2ccc3c(c2)sc2nc(-c4ccc(NC(=O)Nc5cc(C(C)(C)C)on5)cc4)cn23)CC1 [Compound C25, 1-(5-tert-butyl-isoxazol-3-yl)-3-{4-[7-(4-methyl-piperazine-1-carbonyl)-imidazo[2,1-b][1,3]benzothiazol-2-yl]-phenyl}-urea hydrochloride] | – | < 10 nM | 10 to 100 nM | < 10 nM | < 10 nM | – |
| CC(C)(C)c1cc(NC(=O)Nc2ccc(-c3cn4c(n3)sc3cc(OCCCN5CCSCC5)ccc34)cc2)no1 [Compound B8, 1-(5-tert-Butyl-isoxazol-3-yl)-3-{4-[7-(3-thiomorpholin-4-yl-propoxy)-benzo[d]imidazo[2,1-b]thiazol-2-yl]-phenyl}-urea] | – | 10 to 100 nM | 10 to 100 nM | 10 to 100 nM | < 10 nM | – |
| CC(C)(C)c1cc(NC(=O)Nc2ccc(-c3cn4c(n3)sc3cc(CCN5CCCCC5)ccc34)cc2)no1 [Compound D6, 1-(5-tert-Butyl-isoxazol-3-yl)-3-{4-[7-(2-piperidin-1-yl-ethyl)-imidazo[2,1-b][1,3]benzothiazol-2-yl]-phenyl}urea hydrochloride] | – | < 10 nM | < 10 nM | < 10 nM | < 10 nM | – |
| CC(C)(C)c1cc(NC(=O)Nc2ccc(-c3cn4c(n3)sc3cc(C(=O)O)ccc34)cc2)no1 [Compound C27, Sodium 2-{4-[3-(5-tert-butyl-isoxazol-3-yl)-ureido]-phenyl}-benzo[d]imidazo[2,1-b]thiazole-7-carboxylate] | < 10 nM | < 10 nM | 10 to 100 nM | < 10 nM | – | – |
| CCN(CC)C(=O)CCc1ccc2c(c1)sc1nc(-c3ccc(NC(=O)Nc4cc(C(C)(C)C)on4)cc3)cn12 [Compound C8, 3-(2-{4-[3-(5-tert-butyl-isoxazol-3-yl)-ureido]-phenyl}-benzo[d]imidazo[2,1-b]thiazol-7-yl)-N,N-diethyl-propionamide] | – | < 10 nM | 10 to 100 nM | < 10 nM | < 10 nM | – |
| CCN1CCN(CCc2ccc3c(c2)sc2nc(-c4ccc(NC(=O)Nc5cc(C(C)(C)C)on5)cc4)cn23)CC1 [Compound D7, 1-(5-tert-Butyl-isoxazol-3-yl)-3-(4-{7-[2-(4-ethyl-piperazin-1-yl)-ethyl]-imidazo[2,1-b][1,3]benzothiazol-2-yl}-phenyl)-urea hydrochloride] | – | < 10 nM | < 10 nM | < 10 nM | < 10 nM | – |
| CCN1CCN(Cc2ccc3c(c2)sc2nc(-c4ccc(NC(=O)Nc5cc(C(C)(C)C)on5)cc4)cn23)CC1 [Compound D9, 1-(5-tert-Butyl-isoxazol-3-yl)-3-{4-[7-(4-ethyl-piperazin-1-ylmethyl)-imidazo[2,1-b][1,3]benzothiazol-2-yl]-phenyl}-urea hydrochloride] | < 10 nM | < 10 nM | 10 to 100 nM | – | – | < 10 nM |

Continued, in another order:

| Kd (FLT3; [1]) | Kd (KIT) | Kd (CSF1R) | IC50 (MV4-11 cells; [2]) | SMILES | Kd (FLT3) | IC50 (MV4-11 cells; MV4-11, 72 h, read-out: Cellular Assay MV-proliferation IC50 (nM)) |
| --- | --- | --- | --- | --- | --- | --- |
| < 10 nM | < 10 nM | 10 to 100 nM | < 10 nM | CC(C)(C)c1ccc(NC(=O)Nc2ccc(-c3cn4c(n3)sc3cc(OCCN5CCOCC5)ccc34)cc2)cc1 [Compound F2, 1-(4-tert-Butyl-phenyl)-3-{4-[7-(2-morpholin-4-yl-ethoxy)-benzo[d]imidazo[2,1-b]thiazol-2-yl]-phenyl}-urea] | – | – |
| < 10 nM | 10 to 100 nM | 100 to 1000 nM | < 10 nM | Cc1nc2cc(NC(=O)Nc3ccc(-c4cn5c(n4)sc4cc(OCCN6CCOCC6)ccc45)cc3)ccc2s1 [Compound F8, 1-(2-methyl-benzothiazol-5-yl)-3-{4-[7-(2-morpholin-4-yl-ethoxy)-benzo[d]imidazo[2,1-b]thiazol-2-yl]-phenyl}-urea] | – | – |
| 100 to 1000 nM | > 1000 nM | > 1000 nM | > 100 nM | O=C(CCc1ccc2c(c1)sc1nc(-c3ccc(NC(=O)N4CCOCC4)cc3)cn12)N1CCOCC1 [Compound E1, Morpholine-4-carboxylic acid {4-[7-(3-morpholin-4-yl-3-oxo-propyl)-benzo[d]imidazo[21-b]thiazol-2-yl]-phenyl}amide] | – | – |
| > 1000 nM | > 1000 nM | > 1000 nM | > 100 nM | Cc1nc(C(F)(F)F)c(C(=O)Nc2ccc(-c3cn4c(n3)sc3cc(OCCN5CCOCC5)ccc34)cc2)s1 [Compound E3, 2-methyl-4-trifluoromethyl-thiazole-5-carboxylic acid {4-[7-(2-morpholin-4-yl-ethoxy)-benzo[d]imidazo[2,1-b]thiazol-2-yl]-phenyl}-amide] | – | – |
